According to patent publication US11311522B1 (Cavion, Inc., priority 2018, dated 2022):
Values joined by “and” are separate entries in the source; they are usually repeats but may differ in a detail not shown here. Equal values may be shown once. Read-outs that look alike come from different tables or passages of the source.

Experiments:
[1] = molecular target: T1, breast cancer resistance protein (BCRP) (Homo sapiens, UniProt Q9UNQ0); experiment: BCRP transport; type: in vitro ADME; conditions: 30 μM
T1 sequence (Q9UNQ0 1-655): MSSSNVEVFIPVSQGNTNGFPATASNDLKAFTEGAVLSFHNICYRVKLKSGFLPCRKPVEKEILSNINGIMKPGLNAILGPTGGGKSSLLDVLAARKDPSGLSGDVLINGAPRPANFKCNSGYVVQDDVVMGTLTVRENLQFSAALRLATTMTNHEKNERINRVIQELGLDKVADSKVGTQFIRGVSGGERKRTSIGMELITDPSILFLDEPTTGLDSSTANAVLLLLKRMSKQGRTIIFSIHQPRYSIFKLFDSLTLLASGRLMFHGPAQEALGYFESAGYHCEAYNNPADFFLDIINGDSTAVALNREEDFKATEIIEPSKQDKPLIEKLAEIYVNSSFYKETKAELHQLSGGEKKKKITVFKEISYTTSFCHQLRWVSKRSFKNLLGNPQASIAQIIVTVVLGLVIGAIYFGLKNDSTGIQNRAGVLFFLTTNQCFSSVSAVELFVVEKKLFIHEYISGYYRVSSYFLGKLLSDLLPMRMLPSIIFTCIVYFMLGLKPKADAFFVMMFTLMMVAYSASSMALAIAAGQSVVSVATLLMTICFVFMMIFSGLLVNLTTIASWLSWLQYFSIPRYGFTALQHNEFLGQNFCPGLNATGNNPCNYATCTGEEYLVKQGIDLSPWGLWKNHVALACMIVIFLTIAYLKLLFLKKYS
Text: (§1) Glucuronide conjugates of the oxygenated metabolites are detected in human, monkey, and dog hepatocyte preparations. […] However, the abundance of CYP3A5, CYP2C19, and CYP2D6 in human liver microsomes is low (2%-5%) relative to the primary contributors, CYP3A4 (˜30%) and CYP2C9 (˜20%). […] Information on reproductive and developmental toxicology was obtained in a 28-day pivotal female fertility study in rats and in preliminary embryo-fetal development studies in rats and rabbits.

[2] = clinical; conditions: human, plasma, oral, 8 mg
Text: Subjects will be screened for study eligibility within 28 days before administration of the first dose of study drug. Subjects who meet the study eligibility criteria will be admitted to the clinical research unit in the afternoon of the day before administration of the first dose of study drug (Period 1/Day −1).
Treatments A, B, and C will be separated by a minimum 7-day washout period. […] Administration of Treatment D may be separated from administration of Treatments A, B, and C by approximately 4 weeks to allow for analysis of the bioanalytical samples from the first 3 treatments.

[3] = in vivo; conditions: Beagle, dog, in vivo, po
[4] = system: P-glycoprotein; experiment: P-glycoprotein bidirectional transport; type: in vitro ADME, human, monkey, and rat
Text: as §1

[5] = molecular target: T2, Cav3.3 (Homo sapiens, UniProt Q9P0X4); experiment: Cav3.3 FLIPR calcium influx assay (HEK 293 cells); type: cell-based; conditions: read-out: IC50
T2 construct: expressed in transfected cells; host or cells: HEK 293
T2 sequence (Q9P0X4 whole entry, species assumed): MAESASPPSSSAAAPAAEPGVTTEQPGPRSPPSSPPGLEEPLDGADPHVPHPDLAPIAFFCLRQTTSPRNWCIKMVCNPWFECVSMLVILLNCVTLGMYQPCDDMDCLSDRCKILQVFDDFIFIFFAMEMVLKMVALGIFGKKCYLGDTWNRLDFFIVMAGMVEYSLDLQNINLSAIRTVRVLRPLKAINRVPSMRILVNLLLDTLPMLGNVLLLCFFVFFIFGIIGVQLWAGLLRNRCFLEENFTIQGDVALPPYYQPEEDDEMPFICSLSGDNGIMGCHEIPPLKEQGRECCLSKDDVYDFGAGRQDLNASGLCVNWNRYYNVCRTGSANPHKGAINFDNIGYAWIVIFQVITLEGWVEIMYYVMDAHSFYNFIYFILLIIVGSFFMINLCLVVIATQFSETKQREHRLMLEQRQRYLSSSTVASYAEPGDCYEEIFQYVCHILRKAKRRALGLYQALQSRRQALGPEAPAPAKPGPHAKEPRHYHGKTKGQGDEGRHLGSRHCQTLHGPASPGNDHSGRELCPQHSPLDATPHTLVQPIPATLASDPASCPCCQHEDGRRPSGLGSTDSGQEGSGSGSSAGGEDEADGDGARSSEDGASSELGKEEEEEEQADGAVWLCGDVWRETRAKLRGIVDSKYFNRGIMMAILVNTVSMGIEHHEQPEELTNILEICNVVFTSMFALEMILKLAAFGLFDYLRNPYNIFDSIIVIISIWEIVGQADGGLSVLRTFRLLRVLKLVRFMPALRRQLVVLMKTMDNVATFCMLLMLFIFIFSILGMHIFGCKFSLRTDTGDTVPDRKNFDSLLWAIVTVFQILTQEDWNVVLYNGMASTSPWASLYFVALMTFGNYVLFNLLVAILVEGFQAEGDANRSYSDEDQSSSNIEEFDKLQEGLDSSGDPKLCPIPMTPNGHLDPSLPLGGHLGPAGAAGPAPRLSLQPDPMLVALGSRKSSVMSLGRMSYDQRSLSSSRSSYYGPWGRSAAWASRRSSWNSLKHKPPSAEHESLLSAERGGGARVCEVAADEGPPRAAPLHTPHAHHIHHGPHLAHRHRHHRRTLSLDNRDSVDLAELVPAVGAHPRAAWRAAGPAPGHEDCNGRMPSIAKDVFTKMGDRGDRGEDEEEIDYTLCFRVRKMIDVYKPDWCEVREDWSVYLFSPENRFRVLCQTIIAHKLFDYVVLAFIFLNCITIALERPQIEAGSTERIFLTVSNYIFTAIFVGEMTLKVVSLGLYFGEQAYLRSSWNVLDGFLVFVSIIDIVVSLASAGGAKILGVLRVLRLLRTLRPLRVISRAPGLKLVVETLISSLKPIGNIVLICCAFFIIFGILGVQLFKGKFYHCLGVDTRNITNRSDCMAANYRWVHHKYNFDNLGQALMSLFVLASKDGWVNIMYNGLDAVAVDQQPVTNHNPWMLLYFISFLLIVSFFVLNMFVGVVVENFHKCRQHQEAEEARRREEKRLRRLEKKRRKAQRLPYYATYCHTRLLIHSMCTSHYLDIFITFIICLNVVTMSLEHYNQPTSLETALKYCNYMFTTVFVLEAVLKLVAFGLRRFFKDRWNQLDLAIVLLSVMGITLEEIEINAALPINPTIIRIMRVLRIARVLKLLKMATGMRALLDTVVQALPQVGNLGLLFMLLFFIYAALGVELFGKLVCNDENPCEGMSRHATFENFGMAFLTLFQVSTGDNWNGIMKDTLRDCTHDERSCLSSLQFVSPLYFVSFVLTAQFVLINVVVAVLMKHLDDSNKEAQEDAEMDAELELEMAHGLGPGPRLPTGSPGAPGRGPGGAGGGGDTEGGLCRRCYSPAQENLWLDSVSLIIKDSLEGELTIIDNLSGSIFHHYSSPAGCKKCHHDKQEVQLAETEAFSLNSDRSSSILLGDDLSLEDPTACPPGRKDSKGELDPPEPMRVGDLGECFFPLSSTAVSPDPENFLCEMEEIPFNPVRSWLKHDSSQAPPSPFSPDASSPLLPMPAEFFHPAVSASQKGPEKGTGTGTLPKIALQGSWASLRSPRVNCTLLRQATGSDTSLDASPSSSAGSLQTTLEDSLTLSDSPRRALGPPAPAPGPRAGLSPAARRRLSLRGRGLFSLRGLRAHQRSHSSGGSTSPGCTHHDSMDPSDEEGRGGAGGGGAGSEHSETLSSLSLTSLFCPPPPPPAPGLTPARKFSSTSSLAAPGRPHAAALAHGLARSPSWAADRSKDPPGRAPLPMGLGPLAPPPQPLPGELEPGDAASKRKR

[6] = In vitro plasma protein binding, rat; type: in vitro ADME
Text: CX-8998 distributes readily to the brain in rats and to brain and cerebral spinal fluid (CSF) in dogs.

[7] = Off-target panel of enzyme and receptor binding sites, ion channels, transporters; conditions: 10 μM, over 170 targets
[8] = Pharmacokinetics in rats; type: in vivo, rat
Procedure: The validity and reproducibility of the assays were determined, and the precision and accuracy for calibration standards and quality control samples were examined. […] The analytes were stable in plasma under the storage and assay conditions. […] Assay performances were satisfactory and met acceptance criteria for system performance suitability, quantitation range, calibration linearity, assay accuracy and precision, and assay recovery.

[9] = 90-day oral toxicology in Beagle dogs; conditions: dog, in vivo; for NOAEL at 90 days: both
[10] = Rat, IV 2 mg/kg, mean of 2 animals

SMILES: CC(C)c1ccc(CC(=O)N[C@H](C)c2ccc(OCC(F)(F)F)cn2)cc1 [CX-8998]
- Inhibition of BCRP transport [1]: 57%
- AUC(0-t) [2]: 7.49 µM·h
- AUC ([3]; female, 300 mg/kg/day): 2080 µM·h
- Cmax ([3]; female, 300 mg/kg/day): 158 µM
- AUC ([3]; male, 3 mg/kg/day): 62.5 µM·h
- Cmax ([3]; male, 3 mg/kg/day): 8.4 µM
- Cmax ([3]; male, 30 mg/kg/day): 73.5 µM
- Cmax ([3]; male, 300 mg/kg/day): 253 µM
- P-glycoprotein substrate or inhibitor activity [4]: did not demonstrate any activity as a substrate or inhibitor
- IC50 ([5]; depolarizing conditions): ~3.6 nM and 3.6 nM
- IC50 ([5]; hyperpolarizing conditions): ~161 nM and 161 nM
- fraction unbound ([6]; rat plasma, read-out: In vitro plasma protein binding (converted)): ~0.008
- fraction unbound ([6]; rats, read-out: free fraction): 0.008
- fraction unbound ([6]; rodents, read-out: Plasma-free fraction): 0.004
- Off-target effects [7]: No off-target effects
- CL [8, 10]: 29 mL/min/kg
- t½ [8, 10]: 48 min
- F ([8]; Rat, oral 10 mg/kg vs IV 2 mg/kg, mean (SD)): 42 (13) %
- Plasma clearance ([8]; rat, in vivo): 29 mL/min/kg
- half-life ([8]; rat, in vivo): 48 min
- bioavailability ([8]; rat, plasma, po, 10 mg/kg, single dose): 42%
- t½ ([8]; rodents): 48 min
- NOAEL at 90 days ([9]; Beagle, po): 30 mg/kg/day
- NOAEL at 90 days ([9]; beagle, oral): 30 mg/kg/day
- AUC ([9]; female, Beagle, po, 10 mg/kg/day): 163 µM·h
- AUC ([9]; female, beagle, po, 30 mg/kg/day): 363 µM·h
- AUC ([9]; male, Beagle, po, 30 mg/kg/day): 335 µM·h
